The source of these data is ChEMBL document CHEMBL1156298, “New inhibitors for expression of IgE receptor on human mast cell” (Bioorg Med Chem Lett, 2010).

Active and inactive are the calls of the source. No cut-off for these calls is given here.

Series [1] relates to HMC1. The experiment in a line: Inhibition of FCepsilonRI expression in human HMC1 cells at 50 to 100 uM after 72 hrs by flow cytometry. Format: functional, cell-based. In general terms: Flow cytometry measures light scatter and fluorescence of single cells or particles in a stream.
The subject of series [2] is HMC1. In words: Inhibition of FCepsilonRI expression in human HMC1 cells at 100 uM after 72 hrs by flow cytometry. It counts as functional, cell-based.
A short description of series [3]: Cytotoxicity against human HMC1 cells assessed induction of morphological changes at 50 uM. The settings on record: hmc1, 50 µM.
Series [4] concerns HMC1. The experiment in a line: Inhibition of FCepsilonRI alpha subunit mRNA expression in human HMC1 cells at 50 uM after 36 hrs by RT-PCR analysis. Format: functional, cell-based.
For series [5], the system named is HMC1. In words: Inhibition of FCepsilonRI gamma subunit mRNA expression in human HMC1 cells at 50 uM after 36 hrs by RT-PCR analysis. Format: functional, cell-based.
For series [6], the system named is HMC1. In words: Inhibition of FCepsilonRI beta subunit mRNA expression in human HMC1 cells at 50 uM after 36 hrs by RT-PCR analysis. It counts as functional, cell-based.
Series [7] can be described thus: Cytotoxicity against human HMC1 cells assessed induction of cell death at 50 uM. To be noted: hmc1, 50 µM. It counts as cell-based.

In the case of `O=c1cc(-c2cc(O)c(O)c(O)c2)oc2cc(O)cc(O)c12`, the inhibition entry in the series with HMC1 [1] was “Active”.
Take `COc1cc(C(=O)O[C@@H]2Cc3c(O)cc(O)cc3O[C@@H]2c2cc(O)c(O)c(O)c2)cc(O)c1O`: the inhibition entry in the series with HMC1 [1] and in the series on HMC1 [2] was “inactive” in each case.
For `COc1c(O)cc(O)c2c(=O)cc(-c3ccccc3)oc12` [WOGONIN], the Activity entry in series [3] was “Toxic”.
As to `Oc1cc(O)c2cc(O)c(-c3ccc(O)c(O)c3)[o+]c2c1` [CYANIDIN], in series [3], the Activity entry is recorded as “Toxic”.
For the molecule `Oc1cc(O)c2c(c1)O[C@H](c1ccc(O)c(O)c1)[C@H](O)C2`, the inhibition entry in the series on HMC1 [2] is “Active”.
Turning to `O=c1cc(-c2ccc(O)c(O)c2)oc2c([C@@H]3O[C@H](CO)[C@@H](O)[C@H](O)[C@H]3O)c(O)cc(O)c12` [ORIENTIN], the Activity result in series [3] was “Toxic”.
`O=C(O[C@@H]1Cc2c(O)cc(O)cc2O[C@@H]1c1cc(O)c(O)c(O)c1)c1cc(O)c(O)c(O)c1`: the inhibition result in the series on HMC1 [4] and with HMC1 [6] was “inactive” each time. Also, the inhibition entry in the series on HMC1 [5] was “Active”.
Consider `O=C(O[C@@H]1Cc2c(O)cc(O)cc2O[C@@H]1c1ccc(O)c(O)c1)c1cc(O)c(O)c(O)c1`, for which, in the series with HMC1 [2], the inhibition result was “Active”.
Regarding `O=c1cc(-c2ccccc2)oc2c(O)c(O)cc(O)c12` [NORWOGONIN], the Activity result in series [7] was “Toxic”.
With `O=C(O[C@@H]1Cc2c(O)cc(O)cc2O[C@H]1c1cc(O)c(O)c(O)c1)c1cc(O)c(O)c(O)c1`, in the series on HMC1 [2], the inhibition entry was “Active”.
For `COc1c(O)cc(C(=O)O[C@@H]2Cc3c(O)cc(O)cc3O[C@@H]2c2cc(O)c(O)c(O)c2)cc1O`, the inhibition entry with HMC1 [1] and with HMC1 [2] was “inactive” each time.
`O=c1cc(-c2ccc(O)c(O)c2)oc2cc(O)cc(O)c12` [LUTEOLIN]: the Activity entry in series [3] is “Toxic”.
On the same count and under the same terms, the entry for `O=c1cc(-c2ccc(O)cc2)oc2cc(O)cc(O)c12` [APIGENIN] is “Toxic”.
`O=c1cc(-c2ccc(O)cc2)oc2cc(O)c(O)c(O)c12` [SCUTELLAREIN]: in series [7], the Activity result is reported as “Toxic”.
`COc1cc([C@H]2Oc3cc(O)cc(O)c3C[C@H]2OC(=O)c2cc(O)c(O)c(O)c2)cc(O)c1O`: the inhibition entry in the series on HMC1 [1] and in the series with HMC1 [2] was “inactive” each time.
Regarding `O=c1cc(-c2ccccc2)oc2cc(O)c(O)c(O)c12` [BAICALEIN], in series [3], the Activity entry is “Toxic”.
Regarding `Oc1cc(O)c2cc(O)c(-c3cc(O)c(O)c(O)c3)[o+]c2c1`, in the series on HMC1 [1], the inhibition entry is “Active”.
As for `COc1c(O)cc([C@H]2Oc3cc(O)cc(O)c3C[C@H]2OC(=O)c2cc(O)c(O)c(O)c2)cc1O`, the inhibition result in the series on HMC1 [1] and in the series on HMC1 [2] was “inactive” each time.
In the case of `COc1cc(-c2[o+]c3cc(O)cc(O)c3cc2O)cc(OC)c1O` [MALVIDIN], the Activity entry in series [3] is “Toxic”.
